What is called melting point is the temperature, or range, at which the solid turns liquid. `CN(C)S(=O)(=O)c1ccccc1-c1cnc(N)c(C(=O)Nc2cccnc2)n1` [Example 235, 3-Amino-6-{2-[(dimethylamino)sulfonyl]phenyl}-N-pyridin-3-ylpyrazine-2-carboxamide] came in with a melting point of 221.5 to 223 °C.

For the origin of these results see patent US20060052396A1, “Arylamines for the treatment of conditions associated with gsk-3” (priority 2001, published 2006).
